Test results published in US6867186B2, “Cell-permeable protein inhibitors of calpain” (New England Medical Center Hospital, priority 1997, dated 2005).
Like-named read-outs stand apart in the source and are kept apart here. Peptide text beside a SMILES is read from it. * marks the point of attachment. Cbz = O=C(OCc1ccccc1)*; CHN2 = [N-]=[N+]=C*

What was measured:
[1] = system: gel filtered platelets; test: Thrombin-induced platelet aggregation (aggregometer); assay type: cell-based, human; settings: for IC50: initial rate during first 15 seconds, NI=no inhibition, peptidyl inhibitors 10 min pre-incubation, read-out: IC50, initial rate of thrombin-induced platelet aggregation; for effect on platelet aggregation: thrombin or SFLLR induced
Experimental: In one series of experiments, platelets were purified from […] on a SEPHAROSE 2B column in PIPES buffered saline containing glucose, pre-incubated with 45 μM calpastat or S-TIPPEY-ala for 30 minutes at 37° C., and placed in a cuvette in a BIODATA aggregometer. The aggregometer measures turbidity of the solution by nephlometry (light scatter). Aggregation was induced with thrombin (0.1 to 1 unit/ml) or the thrombin receptor agonist peptide SFLLR (SEQ ID NO:5). […] In contrast, S-TIPPEY-ala had no activity. A version of S-TIPPEYIN lacking the signal sequence similarly had no activity.
In another series of experiments, gel filtered platelets were obtained and tested as follows. Blood from healthy, aspirin-free volunteers was collected by venipuncture into 4% sodium citrate (9:1 v/v, final concentration 0.4%) and centrifuged at 200×g for 20 minutes to obtain platelet rich plasma (PRP). Following incubation with apyrase (4 units/ml for 5 minutes at room temperature), platelets were purified from PRP by gel-filtration at room temperature using a Sepharose 2B column equilibrated in PIPES buffer (25 mM PIPES pH 6.8, 140 mM NaCl, 4 mM KCl, and 0.1% glucose) (Hsu-Lin, et al., J. Biol. Chem. 259:9121-9126, 1984). Final gel filtered platelet concentrations were about 1.5×10^8 cells/ml.
Gel filtered platelets (250 μl aliquots at 1.6×10^8/ml) were incubated with the indicated concentration of calpastat or mutant calpastat-ala for either 20 or 30 minutes at 37° C. in the absence of calcium and stirring. To test peptidyl calpain inhibitors, platelets were preincubated with the indicated concentration of calpeptin, MDL, E64d, DMSO (vehicle control) or NH4Cl (cathepsin control) for 10 minutes at 37° C. Following incubation, platelets were recalcified (CaCl2, 2 mM) and stimulated with 0.05-1.0 unit/ml thrombin, while being stirred (1400 rpm) at 37° C. The sensitivity of platelet preparations to thrombin decreased over the course of a given experiment. The thrombin concentration used was to elicit robust aggregation and varied between 0.05 and 1.0 U/ml. Aggregation was measured using a Bio-Data lumi-aggregometer. Percent inhibition of aggregation was measured at 4 minutes following the onset of aggregation. The initial rate of aggregation during the first 15 seconds for treated vs. untreated samples was used to calculate the IC50 for each inhibitor.

[2] = system: platelets; test: cells
Experimental: To determine whether S-TIPPEYIN could inhibit α-granule secretion in platelets, surface expression of P-selectin, which indicates α-granule secretion, was induced with the thrombin peptide SFLLR (SEQ ID NO:5) and analyzed by flow cytometry using an antibody against P-selectin. Blood from healthy volunteers was collected into sodium citrate (4% w/v) and centrifuged at 200×g for 10 minutes to prepare platelet-rich plasma (PRP), from which platelets were subsequently purified by gel filtration using a SEPHAROSE 2B column in PIPES buffer. Twenty μl of platelets (approximately 2×10^8 platelets/ml) were aliquoted into eppendorf tubes and one μl of S-TIPPEYIN, TIPPEYIN (lacking the signal peptide sequence), or S-TIPPEY-ala was added to achieve final concentrations of 6.25, 12.5, 25, 50, or 100 μM. The platelets were then incubated for 2 hours at 37° C. and subsequently exposed to either 1 μl PBS (unstimulated) or 1 μl of SFLLR (SEQ ID NO:5; stimulated) at the indicated concentration. After 30 seconds, a 7.5 μl aliquot was transferred to an eppendorf tube containing non-immune serum having antibodies that were conjugated to phycoerythrin. Following a 20 minute incubation at room temperature, the mixture was diluted with 1 ml of 2% paraformaldehyde and incubated at 4° C. for two hours. Antibody binding to platelet surface P-selectin was quantified using a FACSCAN flow cytometer (Becton Dickerson, San Jose, Calif.). Results were reported as the geometric mean of the relative fluorescence.
Platelets were pre-incubated with increasing concentrations of calpeptin, MDL, E64d, or DMSO (vehicle control) for ten minutes prior to stimulation with SFLLR.

[3] = system: platelets; test: cells; assay type: cell-based; settings: for IC50 / effect on platelet spreading: spreading on glass; for IC50: NI=no inhibition, read-out: IC50, inhibition of platelet spreading
Experimental: Platelet activation on surfaces can be inhibited by […] or […] fusion proteins. […] The cellular area of spread platelets was determined by computer assisted image analysis using NIH Image 1.61. […] Percent inhibition of spreading was calculated from the increase in mean cell area for untreated and treated samples vs. unspread DMSO controls.

[4] = system: calpain; test: Ionophore-dependent calpain degradation of ABP and talin in platelets; assay type: cell-based; settings: 5, 8, or 10 minutes A23187
Experimental: To investigate whether calpastat inhibits calpain activity in platelets, the ionophore-dependent proteolysis of actin binding protein (ABP; about 280 kDa) and talin (about 240 kDa), both of which are substrates of both μ- and m-calpains, was examined as follows.
Platelets were pre-incubated with ZLLYCHN2, DMSO (solvent for ZLLY-CHN2), calpastat, or HEPES buffer (buffer for calpastat), and then treated with or without ionophore A23187 for 5, 8, or 10 minutes. The platelets were then gel-purified as described above. Whole cell lysates were prepared and fractionated by SDS polyacrylamide gel electrophoresis.

[5] = system: HIV-1; settings: 24 h
Experimental: (§1) U1 is a human promonocytic cell line that is chronically infected with HIV-1 and that constitutively expresses low levels of HIV-1. […] In the present experiment, 1×10^6 cells/ml were treated with various dosages of calpastat and incubated for one hour at 37° C. After incubation, various concentrations of Tpg were added to the calpastat-treated cells and aliquoted into a 24-well plate. To observe the stimulation of HIV-1 activity by Tpg, equivalent numbers of cells were treated with Tpg alone. The cells were then incubated at 37° C. for up to four days, and supernatants from the cell culture were collected each day to measure HIV-1 activity. The viability of cells treated with both Tpg and calpastat were determined each day by Trypan-blue exclusion test. The HIV-1 activity in the collected supernatants was determined by measuring the HIV-1 p24 core antigen protein by ELISA (Dupont Medical Products, Boston, Mass.) according to the manufacturer's instructions.
In another series of experiments, U1 cells, which are latently infected with HIV-1 provirus, were plated at 10^6 cells/well in 1 ml of medium and treated with varying concentrations of either calpastat (FIG. 7E) or calpeptin (benzyloxycarbonyl-leucyl-norleucinal) (FIG. 7F) for 45 minutes before addition of thapsigargin (4 nM final concentration). […] After 48 hours of stimulation, HIV-1 p24 antigen levels were determined in 200 μl of tissue culture supernatant, using a p24 ELISA (DuPont). All assays were performed on triplicate cultures.

[6] = system: U1 cells; test: U1 cell viability (Trypan-blue exclusion); assay type: cell-based, human; settings: for U1 cell viability: 96 hr
Experimental: as §1
In another series of experiments, U1 cells, which are latently infected with HIV-1 provirus, were plated at 10^6 cells/well in 1 ml of medium and treated with varying concentrations of either calpastat (FIG. 7E) or calpeptin (benzyloxycarbonyl-leucyl-norleucinal) (FIG. 7F) for 45 minutes before addition of thapsigargin (4 nM final concentration). The viability of U1 monocytes was 90% at 48 hours of thapsigargin (4 nM) treatment, in the presence or absence of calpain inhibitors. After 48 hours of stimulation, HIV-1 p24 antigen levels were determined in 200 μl of tissue culture supernatant, using a p24 ELISA (DuPont). All assays were performed on triplicate cultures. Mean values and standard deviations are shown for each concentration of inhibitor (FIGS. 7E-7F).

[7] = target: T1, purified µ-calpain (porcine erythrocyte) (porcine, UniProt P35750 1-714; P04574 1-266, limits assumed); test: cell-based or functional assay
T1 sequence (looked up) 1: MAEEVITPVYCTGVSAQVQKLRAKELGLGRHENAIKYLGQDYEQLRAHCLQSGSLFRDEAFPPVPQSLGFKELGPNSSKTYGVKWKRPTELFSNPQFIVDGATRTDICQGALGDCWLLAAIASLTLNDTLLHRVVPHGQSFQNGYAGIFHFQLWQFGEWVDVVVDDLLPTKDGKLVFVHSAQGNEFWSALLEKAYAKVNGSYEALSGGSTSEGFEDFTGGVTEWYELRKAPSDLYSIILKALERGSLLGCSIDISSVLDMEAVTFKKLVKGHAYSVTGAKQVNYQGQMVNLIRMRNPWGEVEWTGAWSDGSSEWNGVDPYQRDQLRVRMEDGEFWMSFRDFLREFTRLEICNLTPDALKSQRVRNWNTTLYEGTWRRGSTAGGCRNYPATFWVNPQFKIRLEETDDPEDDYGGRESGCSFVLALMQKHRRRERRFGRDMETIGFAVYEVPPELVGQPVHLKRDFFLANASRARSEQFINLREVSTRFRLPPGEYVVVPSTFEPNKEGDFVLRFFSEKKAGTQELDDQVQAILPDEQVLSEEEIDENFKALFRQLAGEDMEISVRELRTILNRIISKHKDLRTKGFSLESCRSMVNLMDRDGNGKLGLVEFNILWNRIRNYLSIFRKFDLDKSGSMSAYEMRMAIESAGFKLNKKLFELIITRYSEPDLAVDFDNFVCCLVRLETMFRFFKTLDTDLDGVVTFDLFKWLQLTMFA
T1 sequence (looked up) 2: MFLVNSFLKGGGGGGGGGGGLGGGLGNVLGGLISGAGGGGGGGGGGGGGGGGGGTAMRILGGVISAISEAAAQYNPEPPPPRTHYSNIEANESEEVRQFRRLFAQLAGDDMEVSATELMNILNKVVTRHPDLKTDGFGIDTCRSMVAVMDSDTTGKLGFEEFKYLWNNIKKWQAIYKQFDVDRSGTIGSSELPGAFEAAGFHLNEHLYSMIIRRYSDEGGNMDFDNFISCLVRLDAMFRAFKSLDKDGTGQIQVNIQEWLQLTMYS

## CCCC[C@@H](C=O)NC(=O)[C@H](CC(C)C)NC(=O)OCc1ccccc1 [Calpeptin, benzyloxycarbonyl-leucyl-norleucinal]
[1]; Homo sapiens, Platelet
  IC50: 150 µM
[2]; Homo sapiens, Platelet, read-out: IC50 / half-maximal inhibition of P-selectin surface expression
  IC50: 200 to 300 µM
[3]; Platelet
  IC50: 200 µM
[3]; pre-treated at 200 μM
  platelets round and unspread: 30%

## CCOC(=O)[C@H]1O[C@@H]1C(=O)N[C@@H](CC(C)C)C(=O)NCCC(C)C [E64d]
[1]
  IC50: 340 µM
[3]; pretreated at 250 μM
  platelets round and unspread: About 20%
[3]
  IC50: > 250 µM

## CC(C)[C@H](NC(=O)OCc1ccccc1)C(=O)N[C@H](C=O)Cc1ccccc1 [MDL] (Cbz-Val-Phe-aldehyde)
[1]
  IC50: 240 µM
[3]; pre-treated at 200 μM
  platelets round and unspread: 30%
[3]
  IC50: 200 µM

## Cl.N [NH4Cl]
[1]
  effect on platelet aggregation: does not affect platelet aggregation
[3]
  effect on platelet spreading: no effect

## CC(C)C[C@H](NC(=O)OCc1ccccc1)C(=O)N[C@@H](CC(C)C)C(=O)N[C@@H](Cc1ccc(O)cc1)C(=O)C=[N+]=[N-] [ZLLYCHN2, reference compound] (Cbz-Leu-Leu-Tyr-CHN2)
[4]
  A23187-dependent calpain degradation of ABP and talin in platelets: inhibited
[3]
  effect on platelet spreading: no inhibitory activity

## C/C=C(/C)C(=O)O[C@H]1C(C)=C2[C@H]([C@@H]1OC(=O)CCCCCCC)[C@@](C)(OC(C)=O)C[C@H](OC(=O)CCC)[C@@]1(O)[C@H]2OC(=O)[C@@]1(C)O [thapsigargin]
[5]; 1 nM Tpg
  induction of virus (HIV-1): 1.37 fold
[5]; 5 nM Tpg
  induction of virus (HIV-1): 20 fold
[6]; 4.0 nM Tpg
  U1 cell viability: about 50%
[6]; 4 nM thapsigargin, 48 hours, presence or absence of calpain inhibitors
  viability of U1 monocytes: 90%
[6]; 50 nM Tpg
  U1 cell viability: ~5%

## EKLGERDDTIPPEYRELLEKKTGV [Calpastatin 24 mer]
[1]
  effect on platelet aggregation: no measurable effect
[1]; listed as S-TIPPEYIN lacking the signal sequence
  effect on platelet aggregation: no activity
[2]; pre-incubation, SFLLR stimulation
  effect on SFLLR-induced P-selectin surface expression: little effect

B1: calpastat (peptide)
peptide: H-AAVALLPAVLLALLAPEKLGERDDTIPPEYRELLEKKTGV-OH
[7]
  inhibition of calpain cleavage of [14C]-methylcasein in a cell-free system (2.7 µM µ-calpain), IC50: 0.5 µM
  inhibition of µ-calpain cleavage of suc-LLVY-AMC (fluorometric calpain assay, 70 nM enzyme), IC50: 0.05 µM
